Results as given in patent US20240270821A1, “GIP/GLP1/GCG TRI-RECEPTOR AGONISTS AND USES THEREOF” (priority 2023, published 2024).
Starred links: 1 amine or outer side, 2 acyl side, 3 side chain; linkers in the order of their positions; H or OH if unused. Non-standard residues stand in square brackets, D forms with d. Groups on a side chain read outwards from the residue. *: point of attachment. C18 diacid = O=C(O)CCCCCCCCCCCCCCCCC(=O)*; γGlu = O=C(O)[C@H](CCC(=O)[*:2])N[*:1]; αMe4Pal = C[C@](N)(Cc1ccncc1)C(=O)O; 4Pal = N[C@@H](Cc1ccncc1)C(=O)O; αMeL = CC(C)C[C@](C)(N)C(=O)O; Orn = NCCC[C@H](N)C(=O)O; AEEA = NCCOCCOCC(=O)O; Aib = CC(C)(N)C(=O)O

Legend:
Assay type in all cases: cell-based
hGLP-1R [1] = target: T1, hGLP-1R (Homo sapiens, UniProt P43220); experiment: Functional cAMP activation in the presence of 0.1% casein (no HSA); details: in the presence of 0.1% casein (no HSA); geometric mean; read-out: Relative cAMP EC50, hGLP-1R;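 also: intracellular cAMP rise after 30 min at 37 °C read by HTRF, normalized between buffer only (0%) and maximal control ligand (100%), four-parameter variable-slope fit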
T1 sequence (P43220 24-463): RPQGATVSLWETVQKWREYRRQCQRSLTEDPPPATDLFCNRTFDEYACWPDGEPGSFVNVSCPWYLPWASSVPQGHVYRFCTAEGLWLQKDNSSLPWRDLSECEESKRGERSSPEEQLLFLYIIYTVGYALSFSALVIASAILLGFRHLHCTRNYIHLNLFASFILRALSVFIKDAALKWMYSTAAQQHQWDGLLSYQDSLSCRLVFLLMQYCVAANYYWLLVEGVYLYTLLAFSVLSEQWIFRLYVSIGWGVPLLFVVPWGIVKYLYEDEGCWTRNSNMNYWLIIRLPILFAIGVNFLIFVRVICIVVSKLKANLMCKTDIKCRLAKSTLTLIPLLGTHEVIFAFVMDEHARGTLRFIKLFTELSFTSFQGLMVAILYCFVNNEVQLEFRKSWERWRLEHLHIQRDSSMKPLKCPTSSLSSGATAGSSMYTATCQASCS

hGLP-1R [2] = target: T1, hGLP-1R; experiment: Functional cAMP activity in the presence of 1% HSA; details: read-out: cAMP Rel EC50, hGLP-1R
hGIPR [3] = target: T2, hGIPR (Homo sapiens, UniProt P48546); experiment: Functional cAMP activation in the presence of 0.1% casein (no HSA); details: in the presence of 0.1% casein (no HSA); geometric mean; read-out: Relative cAMP EC50, hGIPR;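 also: intracellular cAMP rise after 30 min at 37 °C read by HTRF against a standard curve, scaled between buffer alone (0%) and top control ligand concentration (100%), four-parameter fit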
T2 sequence (P48546 22-466): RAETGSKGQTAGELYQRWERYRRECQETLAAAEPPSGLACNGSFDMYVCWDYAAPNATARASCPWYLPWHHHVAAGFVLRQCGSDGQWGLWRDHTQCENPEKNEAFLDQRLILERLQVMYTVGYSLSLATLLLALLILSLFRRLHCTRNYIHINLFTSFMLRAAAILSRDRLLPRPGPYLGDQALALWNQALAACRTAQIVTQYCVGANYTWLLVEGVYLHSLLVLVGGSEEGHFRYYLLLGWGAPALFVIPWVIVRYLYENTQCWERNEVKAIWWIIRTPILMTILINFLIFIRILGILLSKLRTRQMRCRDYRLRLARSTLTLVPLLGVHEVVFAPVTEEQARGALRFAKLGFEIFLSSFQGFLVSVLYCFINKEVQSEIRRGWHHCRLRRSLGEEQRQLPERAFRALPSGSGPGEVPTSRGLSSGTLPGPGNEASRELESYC
Description: After a 30-minute incubation at 37° C., the resulting increase in intracellular cAMP is quantitatively determined using the CisBio CAMP Dynamic 2 HTRF Assay Kit (62AM4PEJ). Briefly, cAMP levels within the cell are detected by adding the cAMP-d2 conjugate in cell lysis buffer followed by the antibody anti-cAMP-Eu^3+-Cryptate, also in cell lysis buffer.
Intracellular cAMP levels are determined by extrapolation using a standard curve. Dose response curves of compounds are plotted as the percentage of stimulation normalized to minimum (buffer only) and maximum (maximum concentration of each control ligand) values and analyzed using a four parameter non-linear regression fit with a variable slope (Genedata Screener 13). EC50 is the concentration of compound causing half-maximal simulation in a dose response curve. Each relative EC50 value for the Geometric mean calculation is determined from a curve fitting.

human GcgR = human GcgR (Homo sapiens, UniProt P47871); experiment: Functional cAMP activity in the presence of 1% HSA; details: read-out: cAMP Rel EC50, hGcgR
Chain of human GcgR (P47871 26-477): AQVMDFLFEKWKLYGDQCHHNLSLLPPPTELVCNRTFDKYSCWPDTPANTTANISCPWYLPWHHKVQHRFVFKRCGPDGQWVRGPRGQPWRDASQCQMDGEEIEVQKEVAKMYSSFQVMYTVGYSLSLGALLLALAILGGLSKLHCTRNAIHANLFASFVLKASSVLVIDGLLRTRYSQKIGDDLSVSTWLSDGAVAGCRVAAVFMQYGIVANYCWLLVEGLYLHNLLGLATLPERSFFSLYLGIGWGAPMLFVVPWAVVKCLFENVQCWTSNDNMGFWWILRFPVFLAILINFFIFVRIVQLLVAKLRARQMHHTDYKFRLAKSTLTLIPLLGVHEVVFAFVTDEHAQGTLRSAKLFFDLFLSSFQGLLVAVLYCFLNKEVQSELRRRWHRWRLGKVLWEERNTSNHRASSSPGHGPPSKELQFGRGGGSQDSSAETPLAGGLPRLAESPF

hGIPR [4] = target: T2, hGIPR; experiment: Functional cAMP activity in the presence of 1% HSA; details: read-out: cAMP Rel EC50, hGIPR
human GLP1-R = human GLP1-R (Homo sapiens, UniProt P43220); experiment: GLP1-R internalization assay in HEK293 cells; details: for EC50: HEK293 cells expressing SNAP-GLP-1R, read-out: GLP1R Internalization EC50; for Internalization % TOP: normalized to maximum concentration of GLP-1 (100%)
Chain of human GLP1-R (P43220 24-463): as the sequence (P43220 24-463) above

hGcgR = hGcgR (Homo sapiens, UniProt P47871); experiment: Functional cAMP activation in the presence of 0.1% casein (no HSA); details: in the presence of 0.1% casein (no HSA); geometric mean; read-out: Relative cAMP EC50, hGcgR;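 also: intracellular cAMP rise after 30 min at 37 °C, read by HTRF against a cAMP standard curve, scaled from buffer only (0%) to maximal control ligand response (100%)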
Chain of hGcgR (P47871 26-477): as the sequence (P47871 26-477) above

Substance	EC50 (hGLP-1R [1])	EC50 (hGLP-1R [2])	EC50 (hGIPR [3])	EC50 (human GcgR)	EC50 (hGIPR [4])	EC50 (human GLP1-R)	Internalization % TOP (human GLP1-R)	EC50 (hGcgR)
H-Y[Aib]QGTFTSDFS[Orn][αMeL]LDKK([AEEA-γGlu-C18 diacid])AQ[Aib]AFIEWLLEGGTSSGAPPPSGE-NH2 [Example 175]	4 nM	386 nM	0.218 nM	579 nM	29.6 nM	116 nM	49.2%	4.92 nM
H-Y[Aib]QGTFTSDFS[Orn][αMeL]LDKK([AEEA-γGlu-C18 diacid])AQ[Aib]AFIEWLLEGGTSSGAPPPSGS-NH2 [Example 176]	2.92 nM	389 nM	0.212 nM	461 nM	40.7 nM	103 nM	48%	4.1 nM
H-Y[Aib]QGTFTSDFS[Orn][αMeL]LDKK([AEEA-γGlu-C18 diacid])AQ[Aib]AFIEWLLEGGTSSGAPPPSGT-NH2 [Example 177]	2.97 nM	483 nM	0.213 nM	758 nM	34.8 nM	79.4 nM	44%	4.22 nM
H-Y[Aib]QGTFTSDFS[Orn][αMeL]LDKK([AEEA-γGlu-C18 diacid])AQ[Aib]AFIEYLIE[Aib]GESSGAPPPSGE-NH2 [Example 219]	0.835 nM	221 nM	0.119 nM	1870 nM	23.3 nM	48 nM	37.2%	7.77 nM
H-Y[Aib]QGTFTSDFS[Orn][αMeL]LDKK([AEEA-γGlu-C18 diacid])AQ[Aib]AFIEYLIE[Aib]GESSGAPPPSGS-NH2 [Example 218]	0.76 nM	152 nM	0.0853 nM	1480 nM	15 nM	80.5 nM	35%	7.89 nM
H-Y[Aib]QGTFTSDFS[Orn][αMeL]LDKK([AEEA-γGlu-C18 diacid])AQ[Aib]AFIEYLLAGGPSSGAPPPEGE-NH2 [Example 99]	3.54 nM	588 nM	0.174 nM	1130 nM	29.5 nM	56.9 nM	46.1%	6.09 nM
H-Y[Aib]QGTFTSDFS[Orn][αMeL]LDKK([AEEA-γGlu-C18 diacid])AQ[Aib]AFIEYLLAGGPSSGAPPPSGD-NH2 [Example 85]	2.73 nM	387 nM	0.157 nM	1270 nM	22.1 nM	326 nM	48.3%	7.63 nM
H-Y[Aib]QGTFTSDFS[Orn][αMeL]LDKK([AEEA-γGlu-C18 diacid])AQ[Aib]AFIEYLLAGGPSSGAPPPSGE-NH2 [Example 86]	2.43 nM	421 nM	0.145 nM	1130 nM	19.6 nM	57.8 nM	52.5%	7.23 nM
H-Y[Aib]QGTFTSDFS[Orn][αMeL]LDKK([AEEA-γGlu-C18 diacid])AQ[Aib]AFIEYLLAGGPSSGAPPPSGS-NH2 [Example 95]	1.95 nM	380 nM	0.116 nM	1130 nM	18.2 nM	37.8 nM	49.3%	8.41 nM
H-Y[Aib]QGTFTSDFS[Orn][αMeL]LDKK([AEEA-γGlu-C18 diacid])AQ[Aib]AFIEYLLAGGPSSGAPPPSGSE-NH2 [Example 90]	2.68 nM	371 nM	0.173 nM	990 nM	24.9 nM	70.8 nM	49.8%	9.58 nM
H-Y[Aib]QGTFTSDFS[Orn][αMeL]LDKK([AEEA-γGlu-C18 diacid])AQ[Aib]AFIEYLLAGGPSSGAPPPSGT-NH2 [Example 87]	2.75 nM	290 nM	0.128 nM	1110 nM	12.8 nM	61.8 nM	45.4%	8.51 nM
H-Y[Aib]QGTFTSDFS[Orn][αMeL]LDKK([AEEA-γGlu-C18 diacid])AQ[Aib]AFIEYLLAGGPSSGEPPPSGE-NH2 [Example 97]	3.23 nM	605 nM	0.176 nM	1270 nM	23.9 nM	51.9 nM	50.7%	6.73 nM
H-Y[Aib]QGTFTSDFS[Orn][αMeL]LDKK([AEEA-γGlu-C18 diacid])AQ[Aib]AFIEYLLEGGHSSGAPPPGGS-NH2 [Example 162]	4.72 nM	786 nM	0.222 nM	558 nM	37.5 nM	48.8 nM	44.8%	4.72 nM
H-Y[Aib]QGTFTSDFS[Orn][αMeL]LDKK([AEEA-γGlu-C18 diacid])AQ[Aib]AFIEYLLEGGHSSGEPPPGGS-NH2 [Example 164]	5.02 nM	962 nM	0.302 nM	411 nM	59 nM	45.9 nM	46.5%	2.92 nM
H-Y[Aib]QGTFTSDFS[Orn][αMeL]LDKK([AEEA-γGlu-C18 diacid])AQ[Aib]AFIEYLLEGGPSSGAPPPGGS[AEEA]-NH2 [Example 66]	3.86 nM	329 nM	0.219 nM	415 nM	29.9 nM	42.1 nM	46.3%	3.71 nM
H-Y[Aib]QGTFTSDFS[Orn][αMeL]LDKK([AEEA-γGlu-C18 diacid])AQ[Aib]AFIEYLLEGGPSSGAPPPGGT-NH2 [Example 158]	2.49 nM	184 nM	0.245 nM	325 nM	24.7 nM	104 nM	52.4%	3.72 nM
H-Y[Aib]QGTFTSDFS[Orn][αMeL]LDKK([AEEA-γGlu-C18 diacid])AQ[Aib]AFIEYLLEGG[4Pal]SSGAPPPGGS-NH2 [Example 163]	6.5 nM	762 nM	0.376 nM	790 nM	52 nM	143 nM	37.8%	5.6 nM
H-Y[Aib]QGTFTSDFS[Orn][αMeL]LDKK([AEEA-γGlu-C18 diacid])AQ[Aib]AFIEYLLE[Aib]GPSSGAPPPSGE-NH2 [Example 110]	2.99 nM	821 nM	0.102 nM	627 nM	19.8 nM	28.3 nM	42.5%	2.45 nM
H-Y[Aib]QGTFTSDFS[Orn][αMeL]LDKK([AEEA-γGlu-C18 diacid])AQ[Aib]AFIEYLLE[Aib]GPSSGAPPPSGS-NH2 [Example 74]	3.32 nM	627 nM	0.0708 nM	709 nM	15.9 nM	72.7 nM	53.3%	2.53 nM
H-Y[Aib]QGTFTSDFS[Orn][αMeL]LDKK([AEEA-γGlu-C18 diacid])AQ[Aib]AFIEYLLE[Aib]GPSSGAPPPSGT-NH2 [Example 200]	3.19 nM	395 nM	0.0739 nM	360 nM	13.7 nM	86.1 nM	39.2%	2.83 nM
H-Y[Aib]QGTFTSDFS[Orn][αMeL]LDKK([AEEA-γGlu-C18 diacid])AQ[Aib]AFIEYLLE[Aib]GPSSG[Aib]PPPSGS-NH2 [Example 239]	2.9 nM	419 nM	0.0503 nM	693 nM	12 nM	72.6 nM	42.9%	2.14 nM
H-Y[Aib]QGTFTSDFS[Orn][αMeL]LDKK([AEEA-γGlu-C18 diacid])AQ[Aib]AFIEYLLE[Aib]G[4Pal]SSGAPPPSGE-NH2 [Example 248]	3.17 nM	438 nM	0.0861 nM	241 nM	10.6 nM	67.4 nM	39.5%	3.36 nM
H-Y[Aib]QGTFTSDFS[Orn][αMeL]LDKK([AEEA-γGlu-C18 diacid])AQ[αMe4Pal]AFIEYLIE[Aib]GESSGAPPPSGE-NH2 [Example 228]	1.52 nM	311 nM	0.147 nM	322 nM	37.8 nM	39 nM	35%	1.38 nM
